Reference: ChEMBL document CHEMBL3045958, “The design and synthesis of inhibitors of adenosine 5'-monophosphate deaminase” (Bioorg Med Chem Lett, 1999)
Blank lines part the entries; values can stand above or below the compound they belong to. Active and inactive are the calls of the source. The rule behind the calls is not given here.

What was measured:
Pisum sativum [1] = test: Increase in ATP levels in Pisum sativum (pea) seedlings at 100 uM measured per gram of frozen weight after 4 hr by luciferase based assay (reference value: 253 to 267 nmol/g of frozen weight); assay type: functional, Lathyrus oleraceus
Adenosine deaminase = target: T1, Adenosine deaminase (Bos taurus, UniProt P56658); test: Inhibition of Bos taurus (calf) […]
T1 sequence (P56658 whole entry): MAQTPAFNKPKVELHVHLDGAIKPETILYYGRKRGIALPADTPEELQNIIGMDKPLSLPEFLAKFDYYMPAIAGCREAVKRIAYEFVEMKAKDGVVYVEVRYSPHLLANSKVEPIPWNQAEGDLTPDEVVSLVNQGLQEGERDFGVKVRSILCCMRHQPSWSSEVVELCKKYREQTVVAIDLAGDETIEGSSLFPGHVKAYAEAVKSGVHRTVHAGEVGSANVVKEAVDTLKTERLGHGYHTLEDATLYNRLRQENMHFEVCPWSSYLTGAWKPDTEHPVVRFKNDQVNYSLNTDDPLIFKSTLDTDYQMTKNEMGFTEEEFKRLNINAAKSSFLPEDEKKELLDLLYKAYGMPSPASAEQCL

[2] = Inhibition of adenylate deaminase
Pisum sativum [3] = test: Increase in ATP levels in Pisum sativum (pea) seedlings at 100 uM measured per gram of frozen weight after 24 hr by luciferase based assay (reference value: 213 to 226 nmol/g of frozen weight); assay type: functional, Lathyrus oleraceus
AMP deaminase 1 = target: T2, AMP deaminase 1 (Oryctolagus cuniculus, UniProt P81072); test: Inhibition of Oryctolagus cuniculus (rabbit) muscle adenylate deaminase; design: species or system Muscle tissue
T2 sequence (P81072 whole entry): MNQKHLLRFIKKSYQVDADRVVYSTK

IC50 (Adenosine deaminase): 5 µM
inhibition [2]: inactive
Structure (SMILES): OC[C@H]1O[C@@H](c2n[nH]c3cncnc23)[C@H](O)[C@@H]1O [DEAMINOFORMYCIN]
Activity (Pisum sativum [1]): 423 nmol
Activity (Pisum sativum [3]): 693 nmol

Ki (AMP deaminase 1): 6.5 µM
Structure (SMILES): O=P(O)(O)OC[C@H]1O[C@@H](n2cnc3cncnc32)[C@H](O)[C@@H]1O

inhibition [2]: inactive
Structure (SMILES): OC[C@H]1C[C@@H](n2cnc3cncnc32)[C@H](O)[C@@H]1O

IC50 (AMP deaminase 1): 0.07 µM
Structure (SMILES): O=P(O)(O)OC[C@H]1O[C@@H](c2n[nH]c3cncnc23)[C@H](O)[C@@H]1O

inhibition [2]: inactive
Structure (SMILES): O=P(O)(O)OC[C@H]1C[C@@H](n2cnc3cncnc32)[C@H](O)[C@@H]1O
